Values of other authors, collected in patent publication US20230310343A1 (priority 2020, published 2023).
Like-named read-outs stand apart in the source and are kept apart here.

How the values were obtained:
[1] = tested on: infectious bronchitis virus (IBV)
[2] = tested on: herpes simplex virus 1 (HSV-1); conditions: for selectivity index: HSV-1; for reduction of viral multiplication: HSV-1-infected cells
[3] = target: N-terminus of the N protein (Avian infectious bronchitis virus, UniProt P69596); conditions: IBV N protein
N-terminus of the N protein, sequence (P69596 31-156 limits assumed): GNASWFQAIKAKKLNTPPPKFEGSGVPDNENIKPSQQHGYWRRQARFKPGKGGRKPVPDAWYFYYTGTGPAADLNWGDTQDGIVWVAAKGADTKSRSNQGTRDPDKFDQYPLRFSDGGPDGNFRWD

hemagglutinin = hemagglutinin (Influenza A virus, UniProt P03452)
hemagglutinin, sequence (P03452 18-342 limits assumed): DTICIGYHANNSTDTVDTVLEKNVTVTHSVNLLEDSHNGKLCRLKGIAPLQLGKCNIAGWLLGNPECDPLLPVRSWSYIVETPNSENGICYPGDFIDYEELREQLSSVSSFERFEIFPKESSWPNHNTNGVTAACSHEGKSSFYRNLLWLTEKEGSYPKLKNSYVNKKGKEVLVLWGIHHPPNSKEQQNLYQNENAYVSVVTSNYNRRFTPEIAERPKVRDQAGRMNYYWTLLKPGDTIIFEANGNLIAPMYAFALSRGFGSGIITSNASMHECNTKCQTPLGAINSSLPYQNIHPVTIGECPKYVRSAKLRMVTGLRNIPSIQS
hemagglutinin, sequence (P03452 344-565 limits assumed): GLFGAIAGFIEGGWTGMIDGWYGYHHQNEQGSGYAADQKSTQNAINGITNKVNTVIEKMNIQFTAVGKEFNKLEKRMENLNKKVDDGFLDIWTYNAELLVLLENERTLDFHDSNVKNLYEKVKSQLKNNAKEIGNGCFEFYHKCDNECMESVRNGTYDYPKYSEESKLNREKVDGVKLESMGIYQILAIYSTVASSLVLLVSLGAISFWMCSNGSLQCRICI

[4] = after penetration of the virus into the cell
[5] = before the virus has entered the cell

For `CC1=CCC2CC1C2(C)C` (stereo not drawn) [alpha-pinene], the “reducing/inhibiting IBV replication” value [1] is listed as “inhibit viral replication”.
In the case of `C=C1CCC2CC1C2(C)C` (stereo not drawn) [beta-pinene], the “reducing/inhibiting IBV replication” value [1] is listed as “inhibit viral replication”.
For `CC12CCC(CC1)C(C)(C)O2` [cineole, 1,8-cineole], the selectivity index [2] is listed as “low”, the “reduction of viral multiplication” value [2] is listed as “significantly reduce viral multiplication” and the “reducing/inhibiting IBV replication” value [1] is listed as “highly effective”. For the same molecule, the “inhibition of IBV” value [1, 4] was “fully effective”, the “inhibition of IBV” value [1, 5] was “moderate effectiveness” and the “binding to the N-terminus of the N protein” value [3] was “binds securely”.
In the case of `CC(C)=CCC/C(C)=C/C=O` [citrol], the “reduction of viral multiplication” value [2] is given as “significantly reduce viral multiplication”.
In the case of `CC(C)=CCCC(C)CCO` (stereo not drawn) [citronellol], the “effectiveness against influenza (H1N1)” value (influenza (H1N1) virus; liquid phase) is listed as “only partially effective” and the “effectiveness against influenza (H1N1)” value (influenza (H1N1) virus; vapor phase) is listed as “effective”.
In the case of `Cc1ccc(C(C)C)cc1` [cymene], the “reduction of viral multiplication” value [2] is listed as “significantly reduce viral multiplication”.
In the case of `C=CCc1ccc(O)c(OC)c1` [eugenol], the “effectiveness against influenza (H1N1)” value (influenza (H1N1) virus; liquid phase) is listed as “effective”, the plaque reduction (influenza (H1N1) virus; liquid phase) is listed as “one hundred” and the “effectiveness against influenza (H1N1)” value (influenza (H1N1) virus; vapor phase) is listed as “effective”.
In the case of `CC1=CCC(O)(C(C)C)CC1` (stereo not drawn) [terpinen-4-ol], the “reduction of viral multiplication” value [2] is given as “significantly reduce viral multiplication”.
In the case of `Cc1ccc(C(C)C)c(O)c1` [thymol], the selectivity index [2] is given as “low” and the “reduction of viral multiplication” value [2] is given as “significantly reduce viral multiplication”.
In the case of pinene, the “reduction of viral multiplication” value [2] is given as “significantly reduce viral multiplication”, the “inhibition of IBV” value [1, 4] is given as “fully effective” and the “inhibition of IBV” value [1, 5] is given as “moderate effectiveness”. The “binding to the N-terminus of the N protein” value [3] was “binds to the N-terminus of the N protein” and the “inhibition of hemagglutinin activity” value (hemagglutinin) was “able to inhibit”.
For terpinene, the “reduction of viral multiplication” value [2] is listed as “significantly reduce viral multiplication”.
